{"source": "patent US20180256673A1", "about": "“METHODS FOR TREATING FUNGAL INFECTIONS” (priority 2015, published 2018)", "key": {"[1]": {"test_system": "C. parapsilosis vaginal isolates", "test": "Susceptibility testing of VVC clinical isolates at pH 7 and 4 (CLSI M27-A3)", "format": "cell-based, Candida parapsilosis", "details": "48 h"}, "Aspergillus fumigatus": {"test_system": "Aspergillus fumigatus", "test": "Broth microdilution of invasive fungal isolates (CLSI M27-A3/M38-A2), MEC", "format": "cell-based", "details": "56 isolates"}, "Candida krusei": {"test_system": "Candida krusei", "test": "Broth microdilution of invasive fungal isolates (CLSI M27-A3/M38-A2)", "format": "cell-based", "details": "16 isolates"}, "Candida glabrata": {"test_system": "Candida glabrata", "test": "microbe, parasite or virus in culture", "format": "cell-based"}, "C. krusei ATCC 6258": {"test_system": "C. krusei ATCC 6258", "format": "cell-based, Candida krusei", "experimental": "(§1) Spontaneous mutant selection. […] Three individual colonies from each strain were used to start cultures in RPMI. […] One milliliter aliquots were spread onto SDA plates containing drug with sterile glass beads. Starting viable count was enumerated by triplicate plating of serial dilutions of the starting inoculum. […] Glycerol stocks of putative mutant colonies were stored at −80° C. […] Spontaneous mutation frequencies were calculated by dividing the number of resistant colonies on a given plate by the starting inoculum plated. A subset of mutants (weighted heavily towards those selected with CMP1) were then evaluated by MIC and sequencing of FKS gene hot spot regions."}, "C. albicans NRRL Y-477": {"test_system": "C. albicans NRRL Y-477", "test": "microbe, parasite or virus in culture", "format": "cell-based, Candida albicans", "details": "Candida albicans"}, "[2]": {"test_system": "C. glabrata ATCC 90030, ATCC 2001", "format": "cell-based, Candida glabrata", "details": "for Freq. (replicate mutation frequency): replicate plates 1-3, listed as CMP1; for Plate concentration: SDA, minimum concentration to cleanly inhibit growth", "experimental": "as §1"}, "[3]": {"test_system": "C. glabrata ATCC 90030, ATCC 2001", "test": "Broth microdilution MIC (CLSI), Examples 3 and 4", "details": "Nakaseomyces glabratus", "description": "Antifungal susceptibility testing. Candida strains were cultured aerobically at 35° C. on SDA plates or in RPMI 1640 broth (pH 7.0). […] MIC assays were performed in triplicate."}, "[4]": {"test_system": "azole-resistant Candida albicans R357 strain", "test": "microbe, parasite or virus in culture", "format": "cell-based", "details": "Candida albicans"}}, "note": "“And” between values parts separate entries of the source, which are not always exact repeats. Equal entries are not always repeated. Where two headings read alike, the source gives them in different places. Starred links: 1 amine or outer side, 2 acyl side, 3 side chain; linkers in the order of their positions; H or OH if unused. Positions of bridges follow the written chain, without caps; N, C: chain ends. Non-standard residues stand in square brackets, D forms with d. Residues, ends and D or L forms follow the SMILES beside them. *: point of attachment. Orn(4R-OH,5R-OCH2CH2NMe3+) = C[N+](C)(C)CCO[C@@H](N[*:3])[C@H](O)C[C@H](N[*:1])C(=O)[*:2]; pTerphenylCO(4''-OnC5H11) = CCCCCOc1ccc(-c2ccc(-c3ccc(C(=O)*)cc3)cc2)cc1; hTyr(3S-OH,4S-OH) = N[C@H](C(=O)O)[C@H](O)[C@@H](O)c1ccc(O)cc1; Pro(3S-OH,4S-Me) = C[C@H]1CN[C@H](C(=O)O)[C@H]1O; Hyp = O=C(O)[C@@H]1C[C@@H](O)CN1"}
{"smiles": "CCCCCOc1ccc(-c2ccc(-c3ccc(C(=O)N[C@H]4C[C@@H](O)[C@@H](OCC[N+](C)(C)C)NC(=O)[C@@H]5[C@@H](O)[C@@H](C)CN5C(=O)[C@H]([C@@H](C)O)NC(=O)[C@H]([C@H](O)[C@@H](O)c5ccc(O)cc5)NC(=O)[C@@H]5C[C@@H](O)CN5C(=O)[C@H]([C@@H](C)O)NC4=O)cc3)cc2)cc1", "note": "[Compound 1] ({pTerphenylCO(4''-OnC5H11)}-[Orn(4R-OH,5R-OCH2CH2NMe3+)]T[Hyp][hTyr(3S-OH,4S-OH)]T[Pro(3S-OH,4S-Me)]; lactam 1-C)", "values": [{"measurement": "MIC90", "setting": "[1]; pH 4", "result": 2, "unit": "µg/mL"}, {"measurement": "MIC90", "setting": "[1]; pH 7", "result": 4, "unit": "µg/mL"}, {"measurement": "Cumulative % of isolates inhibited at MEC 0.015 μg/mL", "setting": "Aspergillus fumigatus", "result": "(92.9) %"}, {"measurement": "Cumulative % of isolates inhibited at MEC 0.03 μg/mL", "setting": "Aspergillus fumigatus", "result": "(100.0) %"}, {"measurement": "Cumulative % of isolates inhibited at MEC ≤0.008 μg/mL", "setting": "Aspergillus fumigatus", "result": "(41.1) %"}, {"measurement": "Number of isolates inhibited at MEC 0.015 μg/mL", "setting": "Aspergillus fumigatus", "result": 29}, {"measurement": "Number of isolates inhibited at MEC 0.03 μg/mL", "setting": "Aspergillus fumigatus", "result": 4}, {"measurement": "Number of isolates inhibited at MEC ≤0.008 μg/mL", "setting": "Aspergillus fumigatus", "result": 23}, {"measurement": "Cumulative % of isolates inhibited at MIC 0.015 μg/mL", "setting": "Candida krusei", "result": "(18.8) %"}, {"measurement": "Cumulative % of isolates inhibited at MIC 0.03 μg/mL", "setting": "Candida krusei", "result": "(87.5) %"}, {"measurement": "Cumulative % of isolates inhibited at MIC 0.06 μg/mL", "setting": "Candida krusei", "result": "(100.0) %"}, {"measurement": "Number of isolates inhibited at MIC 0.015 μg/mL", "setting": "Candida krusei", "result": 3}, {"measurement": "Number of isolates inhibited at MIC 0.03 μg/mL", "setting": "Candida krusei", "result": 11}, {"measurement": "Number of isolates inhibited at MIC 0.06 μg/mL", "setting": "Candida krusei", "result": 2}, {"measurement": "concentration at which all isolates were inhibited", "setting": "Candida krusei", "result": "≤ 0.06", "unit": "µg/mL"}, {"measurement": "MIC50", "setting": "Candida krusei; Pichia kudriavzevii, read-out: MIC50", "result": 0.03, "unit": "µg/mL"}, {"measurement": "MIC90", "setting": "Candida krusei; Pichia kudriavzevii, read-out: MIC90", "result": 0.06, "unit": "µg/mL"}, {"measurement": "Cumulative % of isolates inhibited at MIC 0.015 μg/mL", "setting": "Candida glabrata", "result": "(3.0) %"}, {"measurement": "Cumulative % of isolates inhibited at MIC 0.03 μg/mL", "setting": "Candida glabrata", "result": "(62.0) %"}, {"measurement": "Cumulative % of isolates inhibited at MIC 0.06 μg/mL", "setting": "Candida glabrata", "result": "(91.0) %"}, {"measurement": "Cumulative % of isolates inhibited at MIC 0.25 μg/mL", "setting": "Candida glabrata", "result": "(95.0) %"}, {"measurement": "Cumulative % of isolates inhibited at MIC 0.5 μg/mL", "setting": "Candida glabrata", "result": "(95.0) %"}, {"measurement": "Cumulative % of isolates inhibited at MIC 1 μg/mL", "setting": "Candida glabrata", "result": "(96.0) %"}, {"measurement": "Cumulative % of isolates inhibited at MIC 2 μg/mL", "setting": "Candida glabrata", "result": "(99.0) %"}, {"measurement": "Cumulative % of isolates inhibited at MIC 4 μg/mL", "setting": "Candida glabrata", "result": "(100.0) %"}, {"measurement": "Number of isolates inhibited at MIC 0.015 μg/mL", "setting": "Candida glabrata", "result": 3}, {"measurement": "Number of isolates inhibited at MIC 0.03 μg/mL", "setting": "Candida glabrata", "result": 59}, {"measurement": "Number of isolates inhibited at MIC 0.06 μg/mL", "setting": "Candida glabrata", "result": 29}, {"measurement": "Number of isolates inhibited at MIC 0.12 μg/mL", "setting": "Candida glabrata", "result": 4}, {"measurement": "Number of isolates inhibited at MIC 0.25 μg/mL", "setting": "Candida glabrata", "result": 0}, {"measurement": "Number of isolates inhibited at MIC 0.5 μg/mL", "setting": "Candida glabrata", "result": 0}, {"measurement": "Number of isolates inhibited at MIC 1 μg/mL", "setting": "Candida glabrata", "result": 1}, {"measurement": "Number of isolates inhibited at MIC 2 μg/mL", "setting": "Candida glabrata", "result": 3}, {"measurement": "Number of isolates inhibited at MIC 4 μg/mL", "setting": "Candida glabrata", "result": 1}, {"measurement": "MIC50", "setting": "Candida glabrata; Nakaseomyces glabratus, read-out: MIC50", "result": 0.03, "unit": "µg/mL"}, {"measurement": "MIC90", "setting": "Candida glabrata; Nakaseomyces glabratus, read-out: MIC90", "result": 0.06, "unit": "µg/mL"}, {"measurement": "MIC", "setting": "Candida glabrata; Nakaseomyces glabratus, read-out: MIC results", "result": "2 to 4", "unit": "µg/mL"}, {"measurement": "Median mutation frequency", "setting": "C. krusei ATCC 6258", "result": "3.86E−09"}, {"measurement": "Plate concentration", "setting": "C. krusei ATCC 6258; SDA, minimum concentration to cleanly inhibit growth", "result": 0.25, "unit": "µg/mL"}, {"measurement": "Freq. (replicate mutation frequency)", "setting": "C. krusei ATCC 6258; replicate plates 1-3, listed as CMP1", "result": "1.54E−08 and 3.51E−09 and 3.86E−09"}, {"measurement": "MIC", "setting": "C. albicans NRRL Y-477; NRRLY477, 48 h, NRRL Y-477 P20-1, selecting drug ANID, Fks1 HS1 S645Y, 48 h read", "result": 2, "unit": "µg/mL"}, {"measurement": "MIC", "setting": "C. albicans NRRL Y-477; NRRLY477, 48 h, NRRL Y-477 P20-1, selecting drug CMP1, 48 h read", "result": 0.25, "unit": "µg/mL"}, {"measurement": "MIC", "setting": "C. albicans NRRL Y-477; NRRLY477, NRRL Y-477 P20-1, selecting drug CAS", "result": 0.03, "unit": "µg/mL"}, {"measurement": "MIC", "setting": "C. albicans NRRL Y-477; NRRLY477, read-out: MIC P20, NRRL Y-477, total population after 20 passages with the selecting drug, MIC of selecting drug", "result": 0.25, "unit": "µg/mL"}, {"measurement": "Median mutation frequency", "setting": "[2]; ATCC 2001", "result": "3.16E−08"}, {"measurement": "Freq. (replicate mutation frequency)", "setting": "[2]; ATCC 2001", "result": "3.16E−08 and 3.79E−08 and 1.17E−08"}, {"measurement": "Median mutation frequency", "setting": "[2]; ATCC 90030", "result": "1.35E−08"}, {"measurement": "Freq. (replicate mutation frequency)", "setting": "[2]; ATCC 90030", "result": "3.52E−08 and 1.26E−08 and 1.35E−08"}, {"measurement": "Plate concentration", "setting": "[2]; ATCC 2001", "result": 0.25, "unit": "µg/mL"}, {"measurement": "Plate concentration", "setting": "[2]; ATCC 90030", "result": 0.25, "unit": "µg/mL"}, {"measurement": "MIC", "setting": "[3]; ATCC2001|ATCC90030, 24 h, read-out: Broth MIC, ATCC 2001 wild-type, 24 h, ~50% inhibition", "result": 0.125, "unit": "µg/mL"}, {"measurement": "MIC", "setting": "[3]; ATCC2001|ATCC90030, 24 h, read-out: Broth MIC, ATCC 90030 wild-type, 24 h, ~50% inhibition", "result": 0.06, "unit": "µg/mL"}, {"measurement": "MIC", "setting": "[3]; ATCC2001|ATCC90030, ATCC 2001 spontaneous mutant, Fks2 HS1 D666N", "result": 0.5, "unit": "µg/mL"}, {"measurement": "MIC", "setting": "[3]; ATCC2001|ATCC90030, ATCC 2001 spontaneous mutant, Fks2 HS1 D666Y", "result": 0.5, "unit": "µg/mL"}, {"measurement": "MIC", "setting": "[3]; ATCC2001|ATCC90030, ATCC 2001 spontaneous mutant, Fks2 HS1 R665G", "result": 0.5, "unit": "µg/mL"}, {"measurement": "MIC", "setting": "[3]; ATCC2001|ATCC90030, ATCC 2001 spontaneous mutant, Fks2 HS1 S663F", "result": 1, "unit": "µg/mL"}, {"measurement": "MIC", "setting": "[3]; ATCC2001|ATCC90030, ATCC 2001 spontaneous mutant, Fks2 HS1 ΔF659", "result": 2, "unit": "µg/mL"}, {"measurement": "MIC", "setting": "[3]; ATCC2001|ATCC90030, ATCC 2001 spontaneous mutant, Fks2 HS2 R1378S", "result": 0.25, "unit": "µg/mL"}, {"measurement": "MIC", "setting": "[3]; ATCC2001|ATCC90030, ATCC 90030 spontaneous mutant, Fks2 HS1 D666H", "result": 0.25, "unit": "µg/mL"}, {"measurement": "MIC", "setting": "[3]; ATCC2001|ATCC90030, ATCC 90030 spontaneous mutant, Fks2 HS1 ΔF659", "result": 2, "unit": "µg/mL"}, {"measurement": "MIC", "setting": "[4]", "result": 0.125, "unit": "µg/mL"}]}
